# Read-outs that look alike come from different tables or passages of the source.
# Legend:
# MDA-MB-231 = format: in vivo; settings: for mice died (or euthanized due to sCRS): Week 2
# Description: To evaluate whether pre-painting tumors with EC17 can reduce the therapy-related toxicity (e.g. sCRS), NSG mice were implanted with MDA-MB-231. Since larger tumor burden is correlated with more severe CRS, the treatment was started when tumor size reached […]. Mice were divided into two groups and predosed with 500 nmol/kg EC17 at different time points before CAR-T administration (FIGS. 26A and 26B). Group #1 was pre-dosed 4 hours before the administration of 8 million CAR-T cells, while group #2 was pre-dosed 24 hours before the administration of 8 million CAR-T cells. 500 nmol/kg EC17 was then i.v. dosed once per week (at days 1, 8, 15 etc.) post CAR-T administration (FIGS. 26D and 26E). […] No difference in anti-tumor activity was found in these two groups, and all surviving mice became tumor free eventually. Thus, toxicity was less in mice with 24 hour pre-painting than in mice with 4 hour pre-painting with EC17.
# OV90 = experiment: FITC-CAR-T/EC17 therapy, OV90 model (Example 28); format: in vivo, NSG mice; settings: 500 nmol/kg weekly, 5 million FITC-CAR-T
# Description: To test whether FITC-CAR-T/EC17 therapy has anti-tumor activity in various FR+ tumor models, NSG mice were subcutaneously implanted with MDA-MB-231 (triple negative breast cancer cell line), OV90 (human ovarian cancer cell line), KB (human cervical adenocarcinoma cell line), SKOV-3 (human ovarian carcinoma cell line), or HEK293-FRa (HEK293 stably-transfected with human FRa). When tumor size reached […], one dose of EC17 at 500 nmol/kg of body weight was injected by tail vein followed with administering of 5 million FITC-CAR-T cells 4 hours later. 500 nmol/kg EC17 was dosed once every week after the initial EC17/CAR-T administration (about day 7), tumor size and body weights of mice were monitored three times per week. The EC17 dosing days were labeled as green dashed vertical lines in the graph. […] EC17 dose-dependent temporary body weight loss was also observed in all tumor bearing mice, indicating the activation of CAR-Ts is EC17-dependent in these mice.
# MDA-MB-231 tumors [1] = experiment: IFN-γ in blood versus EC17 dose level and presence of tumor (Example 24); format: in vivo, mice; settings: 10 days after CAR-T injection, EC17 three times per week
# Description: CAR-T cells were injected into naïve mice (8 million per mouse) and mice bearing MDA-MB-231 tumors (5 million per mouse). Various levels of EC17 were administrated three times per week. IFN-γ in blood was measured 10 days after CAR-T cell injection.
# MDA-MB-231 tumors [2] = format: in vivo, NSG mice
# Description: MDA-MB-231 tumors were generated by subcutaneous implantation of cultured cells at 2×10^6 in NSG mice.
# FITC-CAR-T cells were prepared as described previously. After culturing in-vitro for 12-20 days, they were frozen and stored at −80° C. in a freezing reagent containing 50% heat-inactivated AB+ human serum, 40% T cell culture media, and 10% DMSO. Frozen CAR-T cells were quickly thawed at 37° C., washed twice with PBS, and used for animal injection.
# In general, EC17/CAR-T therapy initiated when mouse tumors reached ˜200-250 mm^3 and weekly EC17 doses at 500 nmol/kg started 2 days after the CAR-T administration. All EC17 doses were given towards the end of day (˜3-4 PM) to allow cytokine release syndrome (CRS) to develop overnight. Sodium fluorescein rescue at various doses (0.06-60 μmol/kg) was administrated after the first dose of EC17, when the animals experienced a severe CRS of grade 3-4 on a 0-5 grading scale (FIG. 31). Plasma samples at various time points (3-27 hours) post sodium fluorescein rescue were collected for multiplex cytokine analysis.
# Approximately 48 hours after CAR-T cell infusion, mice were separated into 3 groups. The first group (#1) was not dosed with EC17 and served as the CAR-T cell control, the second (#2) and the third (#3) groups were intravenously injected with a single dose of EC17 (500 nmol/kg). […] Group #2 then received a single intravenous sodium fluorescein (60 μmol/kg) while group #3 was left un-rescued. […] Three satellite animals from each group were euthanized to collect blood and organs for cytokine analysis and organ toxicity evaluation. Whole blood was obtained via cardiac puncture and collected into EDTA containing tubes. Twenty-seven hours after sodium fluorescein rescue, mice rescued with 60 μmol/kg sodium fluorescein in group #2 were recovering and sCRS scale decreased to grade 2, while mice without rescue in group #3 had worse sCRS (grade 3-4). At this time, 6 satellite mice from each group were euthanized for blood collection and organ evaluation. The remaining mice were dosed with a single dose of 500 nmol/kg EC17 every week if desired, and the EC17 dosing dates were labeled in FIG. 36 as dashed vertical lines occurring after the notation “EC17”. Tumor volume and body weight changes were monitored 2-3 times per week.
# To evaluate whether a lower level of sodium fluorescein can also rescue mice under sCRS, the same rescue study was performed except that sodium fluorescein was dosed at 0.06, 0.6, and 6 μmol/kg.
# HOS-FRα = experiment: EC17-controlled anti-FITC CAR T-cell therapy in osteosarcoma model (Example 47); format: in vivo, NSG mice
# Text: HOS-FRα cells were implanted subcutaneously with 5×10^5 per animal in 6 animals.
# […] One animal in the EC17-treated group received two more doses of EC17 at 50 and 100 nmol/kg on Days 40 and 42. All EC17 doses were given towards the end of the day (˜3-4 PM) to allow cytokine release syndrome (CRS) to develop overnight. Sodium fluorescein rescue was done as needed at 0.6 μmol/kg. Only the last EC17-dosed animal received sodium fluorescein on day 47.
# MDA-MB-231 tumors [3] = experiment: Comparison of three rescue reagents (Example 32)
# Description: To evaluate whether mice with FITC-CAR-T therapy related sCRS can be rescued by using competitors which may displace EC17 from either FITC-CAR-T or FR+ tumor cells, 49 NSG mice bearing MDA-MB-231 tumors (150-250 mm3) were administered with excess FITC-CAR-T cells (8 million), 36 of them were then dosed with 500 nmol/kg EC17 48 hours post CAR-T administration, 6 of them were not dosed with EC17 and were used as “No EC17” control, and 7 of them were dosed with 260 umol/kg sodium fluorescein (no EC17 but Fluorescein) to test its toxicity. […] Each group was i.v. injected with 10 umol/kg of Leucovorin, or 10 umol/kg folic acid, or 260 umol/kg sodium fluorescein, or nothing as an un-rescued control. […] Mouse body weight changes were also monitored as the indication of toxicity. […] To evaluate whether the rescue injections affect the anti-tumor activity of FITC-CAR-T cells, these mice were dosed with 500 nmol/kg EC17 twice per week (days 9, 11, 15, 18, 22, 25, etc.) and the tumor size was monitored.
compound,measurement,setting,value
"Nc1nc2ncc(CNc3ccc(C(=O)NC(CCC(=O)NCCNC(=S)Nc4ccc(-c5c6ccc(=O)cc-6oc6cc(O)ccc56)c(C(=O)O)c4)C(=O)O)cc3)nc2c(=O)[nH]1 (centres unmarked) [EC17, FITC-Folate]",mice survived over 5 weeks,MDA-MB-231; 4-hour pre-painting,17%
same,mice died (or euthanized due to sCRS),MDA-MB-231; 4-hour pre-painting,33%
same,mice died,"MDA-MB-231; 4-hour pre-painting, Week 3",33%
same,mice died,"MDA-MB-231; 4-hour pre-painting, week 4",17%
same,mice died (or euthanized due to sCRS),MDA-MB-231; 24-hour pre-painting,17%
same,mice survived over 5 weeks,"MDA-MB-231; NSG, mouse, in vivo",83%
same,tumor outcome of surviving mice,MDA-MB-231; both pre-painting groups,tumor free
same,cures,OV90,50%
same,stable disease,OV90,50%
same,cytokine production (IFN-γ in blood),MDA-MB-231 tumors [1],dependent on both the bridge (EC17) dose level and the presence of the tumor
same,tumor growth,"MDA-MB-231 tumors [2]; 500 nmol/kg SIW, ~10.4 million FITC-CAR-T",started to shrink and disappeared eventually
same,tumor volume,"HOS-FRα; 500 nmol/kg SIW, 10.5 million CAR T-cells",started to shrink on Days 28 and 33
same,CRS,HOS-FRα; once tumors reached >200 mm^3,CRS was severe
O=C([O-])c1ccccc1-c1c2ccc(=O)cc-2oc2cc([O-])ccc12.[Na+].[Na+] [sodium fluorescein],body weight loss compared to other rescue groups,MDA-MB-231 tumors [3]; 260 umol/kg,least body weight loss
same,order of sCRS severity (from worst to least),"MDA-MB-231 tumors [3]; 10 hours after rescue, Leucovorin 10, folic acid 10, sodium fluorescein 260 umol/kg",no rescue group>leucovorin rescue group>folic acid rescue group>sodium fluorescein rescue group>no EC17 group
same,mice with a tiny tumor left,MDA-MB-231 tumors [3]; day 36 post CAR T injection,2 out of 9
same,recovery,MDA-MB-231 tumors [2]; 0.06 μmol/kg,slowest recovery
same,recovery,MDA-MB-231 tumors [2]; 6 μmol/kg,recovered the fastest
same,time to near normal range of IFN-γ,MDA-MB-231 tumors [2]; 60 μmol/kg,27 h
same,"time to normal range of IL-2, TNF-α, IL-3, GM-CSF, IL-6",MDA-MB-231 tumors [2]; 60 μmol/kg,7 h
same,human cytokine levels in blood,"MDA-MB-231 tumors [2]; 60 μmol/kg, 7 hours and 27 hours post rescue",much lower than those in un-rescued mice
same,sCRS severity,"MDA-MB-231 tumors [2]; 0.06, 0.6, 6 μmol/kg, ~8.3 million CAR-T",dose-dependent reduction of sCRS severity
same,sCRS grade,"MDA-MB-231 tumors [2]; 7 hours after 60 μmol/kg rescue, 0-5 grading scale",low grade 3
same,sCRS grade,MDA-MB-231 tumors [2]; 27 hours after 60 μmol/kg rescue,2 grade
same,lung edema,"MDA-MB-231 tumors [2]; 27 hours after rescue, 60 μmol/kg",lung edema was improved
same,median effective dose (human cytokine levels in mouse blood),"MDA-MB-231 tumors [2]; IL-2, TNF-α, IFN-γ etc.",about 0.6 μmol/kg
same,earliest cytokine response post rescue,MDA-MB-231 tumors [2]; key cytokines,3 h
same,effect on anti-tumor activity of EC17/CAR-T therapy,MDA-MB-231 tumors [2]; one dose 6 μmol/kg,didn't affect the anti-tumor activity
same,effect on CAR-T anti-tumor activity,MDA-MB-231 tumors [2]; one dose 60 μmol/kg,did not interfere with CAR-T anti-tumor activity in vivo

# Source: patent US11759480B2, “Compositions and methods for CAR T cell therapy” (ENDOCYTE, INC., priority 2017, dated 2023)
